Results reported in patent US10703760B2, “Morphic forms of marizomib and uses thereof” (Celgene International II Sàrl, priority 2016, dated 2020).

Key:
Type in all cases: physicochemical
[1] = Cocrystal screen of marizomib
[2] = XRPD after storage for four years at 2-8° C.
From the text: Without wishing to be bound by theory, the results of FIGS. 5 and 6 are further supported by FIG. 7. […] (710).

[3] = Variable temperature XRPD; details: 25° C. to 160° C.; listed as morphic Form I
Description: Samples run under non-ambient conditions were mounted on a silicon wafer with heat-conducting compound. The sample was then heated to the appropriate temperature at 20° C./min and subsequently held isothermally for 1 minute before data collection was initiated.

C[C@@]12OC(=O)[C@]1([C@@H](O)[C@@H]1C=CCCC1)NC(=O)[C@@H]2CCCl [marizomib]
substantially identical: XRPD spectra initially versus after storage [2]
Caffeine: XRPD Results ([1]; coformer Caffeine (1:3), DMF:anisole (25:75), slurry, RT, 6 days)
MRZ: XRPD Results ([1]; coformer (2-hydroxypropyl)-β-cyclodextrin (1:1), MeOH/acetone, slurry 50° C. 2 days, supernatant decanted, SE, RT) | XRPD Results ([1]; coformer (2-hydroxypropyl)-β-cyclodextrin (2:1), H2O/ACN, slurry 50° C. 2 days, slurry RT 6 days, SE, RT) | XRPD Results ([1]; coformer Acetic acid (1:2), acetone, stir, RT, 5 days, cool 2-8° C., 3 days, SE, RT) | XRPD Results ([1]; coformer Acetic acid (large excess), slurry, RT) | XRPD Results ([1]; coformer Adenine (1:1), EtOH, slurry, RT, 5 days) | XRPD Results ([1]; coformer Benzoic acid (1:5), MEK:MIBK (20:80), slurry, RT, 7 days) | XRPD Results ([1]; coformer Benzoic acid (2:1), EtOAc, SE, RT) | XRPD Results ([1]; coformer DL-malic acid (1:3), dioxane, slurry 60° C. O/N, stir RT 1 day, FE, RT) | XRPD Results ([1]; coformer Gentisic acid (1:1), t-BuOH, slurry, 50° C., 2 days) | XRPD Results ([1]; coformer Gentisic acid (1:5), MEK:IPA (20:80), slurry, RT, 6 days) | XRPD Results ([1]; coformer Gentisic acid (2:1), ACN, FC, 60° C. to RT) | XRPD Results ([1]; coformer Glutaric acid (1:3), EtOH, slurry, RT, 6 days) | XRPD Results ([1]; coformer Glycolic acid (1:2), acetone, SE, RT) | XRPD Results ([1]; coformer Hydantoin (1:1), 2:1 dioxane:H2O, slurry, RT) | XRPD Results ([1]; coformer Hydantoin (1:3), H2O/ACN, slurry 60° C. overnight, stir RT 1 day) | XRPD Results ([1]; coformer L-Serine (1:1), H2O/THF, stir RT 3 days, SE, RT) | XRPD Results ([1]; coformer L-Serine (1:3), H2O/MeOAc, slurry 60° C. O/N, stir RT 1 day, FE, RT) | XRPD Results ([1]; coformer L-alanine (1:1), MeOH, slurry 60° C. O/N, slurry RT 1 day) | XRPD Results ([1]; coformer L-arginine (1:1), HFIPA/dioxane, stir, RT, ~25 minutes) | XRPD Results ([1]; coformer L-ascorbic acid (1:1), IPA/MeOH at 50° C., FC to RT) | XRPD Results ([1]; coformer L-cysteine (1:1), grind ~10 minutes, EtOH/dioxane (50/50), temperature cycle RT and 50° C.) | XRPD Results ([1]; coformer L-lysine (1:1), HFIPA/THF, stir, RT, ~35 minutes) | XRPD Results ([1]; coformer L-proline (sat'd in IPA at 50° C.), added to MRZ at 50° C., temp cycle (50° C.-RT)) | XRPD Results ([1]; coformer Maleic acid (1:1), nitromethane, SC, 50° C. to RT) | XRPD Results ([1]; coformer Maleic acid (1:3), 1-PrOH, slurry, RT, 6 days) | XRPD Results ([1]; coformer Nicotinamide (1:1), ACN, FC, 70° C. to RT) | XRPD Results ([1]; coformer Orotic acid (2:1), nitromethane, slurry, 50° C., 6 days) | XRPD Results ([1]; coformer Oxalic acid (1:2), EtOH/MEK, stir, RT, 7 days) | XRPD Results ([1]; coformer Saccharin (1:1), IPA, FC, 70° C. to RT) | XRPD Results ([1]; coformer Salicylic acid (1:1), EtOAc:toluene (50:50), FC, 75° C. to RT) | XRPD Results ([1]; coformer Salicylic acid (1:3), EtOH/MIBK, stir, RT) | XRPD Results ([1]; coformer Succinic acid (1:2), MeOH/acetone, stir, RT, 5 days) | XRPD Results ([1]; coformer Urea (2:1), EtOAc, FC, 50° C. to RT)
Thymine: XRPD Results ([1]; coformer Thymine (1:1), MeOH/EtOAc, slurry 50° C. 2 days, slurry RT 6 days)
cocrystal formation did not occur: Cocrystal formation ([1]; about 117 experiments, 46 coformers/counterions)
L-proline: XRPD Results ([1]; coformer L-proline sat'd in H2O/MeOH 50/50 v/v, slurry 50° C. 2 days, slurry RT 3 days)
stable even at elevated temperatures: Morphic form on heating (variable temperature XRPD) [3]
